In PubChem BioAssay (NCI):
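Following 48 hours of exposure in 96-well plates, responses at five concentrations were used to interpolate endpoints linearly. Here, GI50 denotes the concentration required for 50% inhibition of growth. TGI denotes the concentration required for complete inhibition of growth.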

Assays:
Assay in all cases: NCI anticancer screen, dose series, 48 h
[1] = test system: UACC-62 melanoma
[2] = test system: M14 melanoma
[3] = test system: HL-60(TB) leukemia
[4] = test system: SNB-19 CNS
[5] = test system: EKVX NSCLC
[6] = test system: SK-MEL-2 melanoma
[7] = test system: MDA-MB-435
[8] = test system: IGROV1 ovarian
[9] = test system: SK-MEL-5 melanoma
[10] = test system: HCT-15 colon
[11] = test system: A549 NSCLC
[12] = test system: NCI/ADR-RES ovarian
[13] = test system: A498 renal
[14] = test system: LOX IMVI melanoma
[15] = test system: NCI-H460 lung
[16] = test system: HS 578T breast
[17] = test system: U251 CNS
[18] = test system: UO-31 renal
[19] = test system: OVCAR-4 ovarian
[20] = test system: PC-3 prostate
[21] = test system: BT-549 breast
[22] = test system: ACHN renal
[23] = test system: MOLT-4 leukemia
[24] = test system: SF-295 CNS
[25] = test system: NCI-H226 lung
[26] = test system: HCT-116 colon
[27] = test system: K-562 leukemia
[28] = test system: CCRF-CEM leukemia
[29] = test system: MCF7 breast
[30] = test system: OVCAR-3 ovarian
[31] = test system: SF-539 CNS
[32] = test system: SW-620 colon
[33] = test system: HOP-62 NSCLC
[34] = test system: COLO 205 colon
[35] = test system: MDA-MB-231 breast
[36] = test system: KM12 colon
[37] = test system: 786-0 renal
[38] = test system: HT29 colon
[39] = test system: SN12C renal
[40] = test system: SF-268 CNS
[41] = test system: T-47D breast
[42] = test system: OVCAR-8 ovarian
[43] = test system: NCI-H23 lung
[44] = test system: CAKI-1 renal
[45] = test system: SNB-75 CNS
[46] = test system: OVCAR-5 ovarian
[47] = test system: UACC-257 melanoma
[48] = test system: HCC-2998 colon
[49] = test system: TK-10 renal
[50] = test system: MALME-3M melanoma
[51] = test system: NCI-H522 lung
[52] = test system: RPMI-8226 leukemia
[53] = test system: DU-145 prostate
[54] = test system: SK-OV-3 ovarian
[55] = test system: SK-MEL-28 melanoma

Compound: NC(=O)c1c[nH]c2ncnc(N)c12
- GI50 [1]: 95.6 µM
- TGI [1]: > 100 µM
- GI50 [2]: 47.9 µM
- TGI [2]: > 100 µM
- GI50 [3]: 32.3 µM
- TGI [3]: > 100 µM
- GI50 [4]: > 100 µM
- TGI [4]: > 100 µM
- GI50 [5]: 39 µM
- TGI [5]: > 100 µM
- GI50 [6]: 47.2 µM
- TGI [6]: > 100 µM
- GI50 [7]: 26.6 µM
- TGI [7]: > 100 µM
- GI50 [8]: 36.6 µM
- TGI [8]: > 100 µM
- GI50 [9]: 84.3 µM
- TGI [9]: > 100 µM
- GI50 [10]: 41.8 µM
- TGI [10]: > 100 µM
- GI50 [11]: > 100 µM
- TGI [11]: > 100 µM
- GI50 [12]: > 100 µM
- TGI [12]: > 100 µM
- GI50 [13]: 22.9 µM
- TGI [13]: 67.4 µM
- GI50 [14]: 48.6 µM
- TGI [14]: > 100 µM
- GI50 [15]: 45.1 µM
- TGI [15]: > 100 µM
- GI50 [16]: 36.4 µM
- TGI [16]: > 100 µM
- GI50 [17]: > 100 µM
- TGI [17]: > 100 µM
- GI50 [18]: 22.4 µM
- TGI [18]: 80.9 µM
- GI50 [19]: 24.1 µM
- TGI [19]: > 100 µM
- GI50 [20]: 30.3 µM
- TGI [20]: > 100 µM
- GI50 [21]: 21.6 µM
- TGI [21]: > 100 µM
- GI50 [22]: 44.1 µM
- TGI [22]: > 100 µM
- GI50 [23]: 32.9 µM
- TGI [23]: > 100 µM
- GI50 [24]: 31.1 µM
- TGI [24]: > 100 µM
- GI50 [25]: 67.3 µM
- TGI [25]: > 100 µM
- GI50 [26]: 45.5 µM
- TGI [26]: > 100 µM
- GI50 [27]: 93.9 µM
- TGI [27]: > 100 µM
- GI50 [28]: 29.5 µM
- TGI [28]: > 100 µM
- GI50 [29]: 45.4 µM
- TGI [29]: > 100 µM
- GI50 [30]: 23.5 µM
- TGI [30]: > 100 µM
- GI50 [31]: 44.8 µM
- TGI [31]: > 100 µM
- GI50 [32]: 27.1 µM
- TGI [32]: > 100 µM
- GI50 [33]: 53.3 µM
- TGI [33]: > 100 µM
- GI50 [34]: 27 µM
- TGI [34]: > 100 µM
- GI50 [35]: 91.5 µM
- TGI [35]: > 100 µM
- GI50 [36]: 24.8 µM
- TGI [36]: > 100 µM
- GI50 [37]: > 100 µM
- TGI [37]: > 100 µM
- GI50 [38]: 26.6 µM
- TGI [38]: > 100 µM
- GI50 [39]: 71.6 µM
- TGI [39]: > 100 µM
- GI50 [40]: 39.3 µM
- TGI [40]: > 100 µM
- GI50 [41]: 35.3 µM
- TGI [41]: > 100 µM
- GI50 [42]: 90.2 µM
- TGI [42]: > 100 µM
- GI50 [43]: > 100 µM
- TGI [43]: > 100 µM
- GI50 [44]: 2.69 µM
- TGI [44]: 33.8 µM
- GI50 [45]: 13.3 µM
- TGI [45]: 59.3 µM
- GI50 [46]: > 100 µM
- TGI [46]: > 100 µM
- GI50 [47]: > 100 µM
- TGI [47]: > 100 µM
- GI50 [48]: 73 µM
- TGI [48]: > 100 µM
- GI50 [49]: 19.6 µM
- TGI [49]: > 100 µM
- GI50 [50]: 21.3 µM
- TGI [50]: 71.1 µM
- GI50 [51]: > 100 µM
- TGI [51]: > 100 µM
- GI50 [52]: 14.4 µM
- TGI [52]: 50.7 µM
- GI50 [53]: 44.6 µM
- TGI [53]: > 100 µM
- GI50 [54]: 25.9 µM
- TGI [54]: 83 µM
- GI50 [55]: 58.8 µM
- TGI [55]: > 100 µM
